This is an account of results in patent US7915304B2, “Phenyl substituted maleimides as medicaments for blocking degenerative tissue damages by inhibiting MPT” (Congenia S.r.l., priority 2006, dated 2011).

In test [1] the test system is permeability transition pore (PTP). Nature of the test: Mitochondrial in vitro assay: calcium retention capacity (CRC) of isolated mouse liver mitochondria. The test is classed as biochemical. To be noted: ratio of calcium required to open the PTP with vs without compound, 10 μM Ca2+ pulses at 1 min intervals, compound added 1 min before, 25° C. From the text: The mitochondrial in vitro assay is based on the characteristics of mitochondrial organelles which allow the study of mitochondrial function in reductive sub-cellular in vitro systems. It is possible to investigate many mitochondrial processes in isolated mitochondrial suspension obtained from different tissues.
The ability of isolated mitochondria to uptake calcium from outside is a direct measure of mitochondrial integrity and functioning. Indeed MPT impairs the ability of mitochondria to upload calcium through specific channels that require an intact organelle structure. The assay takes advantage of this phenomenon to evaluate the ability of the invention compounds to interfere with MPT on isolated mitochondria.
Mitochondria were prepared from the livers of male 129 or C57/B6 mouse weighing 20-25 g. The animals were sacrificed by cervical dislocation. The livers were isolated and placed in ice-cold 0.25 M sucrose, 10 mM Tris-HCl, 0.1 mM ethylene-bis(oxoethylenenitrilo)tetraacetic acid (EGTA), pH 7.4 The livers were rinsed three-four times with ice-cold medium, minced with scissor and passed through a manual Potter homogenizer kept in an ice-water bath. The homogenate was diluted to 50 ml per liver, and unbroken cells and nuclei were sedimented by centrifugation at 900×g in a Beckman Avanti™ J-25 refrigerated centrifuge kept at 4° C. for 10 min. The supernatant was carefully decanted and centrifuged at 7000×g in the same centrifuge for 10 min. The supernatant was discarded and the mitochondrial pellets were carefully resuspended in ice-cold isolation medium and spun as above.
The resulting mitochondrial pellets were resuspended in a small amount of ice-cold isolation medium, and stored on ice. Mitochondria protein content was determined with the biuret assay.
The mitochondrial Ca^2+ retention capacity (CRC) is a sensitive measure of the propensity of mitochondria to open the PTP after Ca^2+ uptake. Since mitochondria are bidirectionally permeable to Ca^2+ owing to the presence of a Ca^2+ uniporter in their inner membrane, the mitochondrial membrane potential (Δψm) is responsible for the Ca^2+ accumulation in the mitochondrial matrix and consequent Ca^2+ gradient. Any drop in Δψm, such as depolarization caused by H^+ influx during PTP opening, is expected to result in a redistribution of Ca^2+ between the intra and extra-mitochondrial spaces, during which Ca^2+ uses all available routes through the mitochondrial membrane.
CRC of mitochondrial preparations was assessed fluorimetrically in the presence of the fluorescent Ca^2+ indicator Calcium Green-5N (excitation-emission: 505-535 nm) with a Perkin-Elmer LS 55 spectrofluorimeter equipped with a magnetic stirrer and thermostatic control set to 25° C. (Ichas, F.; Jouaville, L. S.; Mazat, J. P. Mitochondria are excitable organelles capable of generating and conveying electrical and calcium signal. Cell., 1997, 89, 1145-1153). Calcium Green-5N is a fluorometric probe that is not permeable to membranes and when added to a mitochondrial suspension is able to detect the presence of Ca^2+ in the extra-mitochondrial medium. Mitochondria were loaded with a train of 10 μM Ca^2+ pulses at 1 min intervals. Under these conditions mitochondria took up actively and retained Ca^2+ until a point at which mitochondria underwent a fast process of Ca^2+ release due to the opening of the PTP. The number of calcium pulses (final concentration of calcium) required to open the PTP is the mitochondrial CRC. This Ca^2+ loading protocol thus provides a convenient and sensitive assay for measuring PTP opening and it is used to assess the ability of the compounds of the invention to inhibit PTP opening. Compounds were added directly to the mitochondrial solution 1 min. prior to the start of calcium pulsing and the number of calcium pulses required to open the PTP was determined. […]

Test [2] deals with experimental autoimmune encephalomyelitis (EAE). Nature of the test: Experimental autoimmune encephalomyelitis (EAE) model of multiple sclerosis. It is filed as in vivo, mouse. From the text:
Experimental autoimmune encephalomyelitis (EAE) is possibly the best animal model to study demyelinating diseases of the central nervous system (CNS) such as multiple sclerosis (MS) Since the first classical studies EAE has been an invaluable tool for dissecting mechanisms of the immune response against self-antigens within the CNS, as well as to test new therapies for the treatment of autoimmune diseases. Rodents are susceptible to EAE. Depending upon species, antigens and mode of sensitisation, EAE can have a monophasic acute course or a chronic relapsing, and even a primarily progressive course that mimics human MS. Acute models of EAE allow faster experimentation and observation, whereas chronic models allow wider observation, such as preventive versus therapeutic treatments.
Seven week-old C57 black/6N female mice were immunized with an emulsion of mycobacterium tubercolosis and the peptide spanning the sequence 35aa-55aa of the myelin oligodendrocyte glycoprotein (MOG) dissolved in phosphate buffer and Freud adjuvant. Mice were injected subcutaneously, in three different sites, with a total of 0.3 ml of emulsion. Immediately after the immunization mice were injected intravenously with 0.1 ml of pertussin toxin ([…]). […]
Starting from day 10 after the immunization mice were evaluated daily for weight loss and locomotive defects. […]

The test system of test [3] is retinal neo-vascularisation. Nature of the test: Mouse retinopathy of prematurity (ROP) model of ischemia-induced retinal neo-vascularisation. The test is classed as in vivo. To be noted: ROP mice. The procedure:
Retinal neo-vascularisation was assessed in a mouse retinopathy of prematurity (ROP) model of ischemia-induced retinal neo-vascularisation. In rodents, retinal vascularisation is generally completed by post-natal day 14 (P14). Oxygen treatment during the second week of life partially causes vaso-obliteration of immature retinal vessels around the optic disk and it blocks subsequent vascular development of the deep retinal layers. When oxygen treatment is stopped, the ischemia of the retina triggers abnormal vessel growth, i.e., retinal neovascularisation.
At postnatal day 7 (P7), newborn mice were exposed to 75% O2 for 5 days in an oxygen incubator. […] Oxygen concentration was monitored by an Oxygen Monitor (Miniox III; Catalyst Research, MD). […]
At day 12 (P12) animals were removed from the oxygen exposure chamber and injected intra-vitreously with a Hamilton syringe with compounds or vehicle solution. […] Flat-mounted retinas were photographed by fluorescence microscopy (Zeiss Axioplan Thornwood, N.Y.) and by computer-imaging (KS300, Kontron Electronik GmbH, Germany) retinal images captured. […]
Eyes from the same groups, at p17, were fixed and sections were prepared and stained with hematoxylin and eosin to quantify the amount of endothelial cells developed. […]

`O=C1C=C(c2ccccc2)C(=O)N1c1cccc(C(F)(F)F)c1` [Example 31, 1-(3-trifluoromethylphenyl)-3-phenyl-pyrrole-2,5-dione]: in test [1], the CRC efficacy came to 2.
On the same count and under the same terms, with `O=C1C=C(c2ccc(O)cc2)C(=O)N1c1cccc(Cl)c1` [Example 36, 1-(3-chlorophenyl)-3-(4-hydroxyphenyl)-pyrrole-2,5-dione] the figure was 1.87; with `O=C1C=C(c2cccc(F)c2)C(=O)N1c1ccc(F)c(Cl)c1` [Example 10, 1-(3-chloro-4-fluorophenyl)-3-(3-fluorophenyl)-pyrrole-2,5-dione], 2.27.
Same read-out and setting: with `O=C1C=C(c2ccccc2F)C(=O)N1c1ccc(F)c(Cl)c1` [Example 14, 1-(3-chloro-4-fluorophenyl)-3-(2-fluorophenyl)-pyrrole-2,5-dione] the figure was 2.22; with `COc1ccc(C2=CC(=O)N(c3cccc(Cl)c3)C2=O)cc1` [Example 48, 1-(3-chlorophenyl)-3-(4-methoxyphenyl)-pyrrole-2,5-dione], 2.11; with `COc1ccc(Cl)cc1N1C(=O)C=C(c2ccccc2)C1=O` [Example 58, 1-(5-chloro-2-methoxyphenyl)-3-phenyl-pyrrole-2,5-dione], 1.86.
As for `Cc1cccc(N2C(=O)C=C(c3ccc(Cl)cc3)C2=O)c1` [Example 53, 1-(3-methylphenyl)-3-(4-chlorophenyl)-pyrrole-2,5-dione], the CRC efficacy in test [1] is recorded as 2.17.
Turning to `Cc1ccc(C2=CC(=O)N(c3cccc(Cl)c3)C2=O)cc1` [Example 57, 1-(3-chlorophenyl)-3-(4-methylphenyl)-pyrrole-2,5-dione], the CRC efficacy in test [1] is 2.66.
With `O=C1C=C(c2ccccc2)C(=O)N1c1ccc(F)c(Cl)c1` [Example 61, 1-(3-chloro-4-fluorophenyl)-3-phenyl-pyrrole-2,5-dione], the CRC efficacy in test [1] is 2.83.
The same measure, in the same setting: to `O=C1C=C(c2ccc(Cl)cc2)C(=O)N1c1cccc(Cl)c1` [Example 55, 1-(3-chlorophenyl)-3-(4-chlorophenyl)-pyrrole-2,5-dione] belongs 2.33; to `O=C1C=C(c2ccc(F)cc2)C(=O)N1c1cccc(Cl)c1` [Example 2, 1-(3-chlorophenyl)-3-(4-fluorophenyl)-pyrrole-2,5-dione], 2.5.
`O=C1C=C(c2cccc(F)c2)C(=O)N1c1cccc(Cl)c1` [Example 9, 1-(3-chlorophenyl)-3-(3-fluorophenyl)-pyrrole-2,5-dione]: the CRC efficacy in test [1] came to 2.75.
For the compound `O=C1C=C(c2ccccc2)C(=O)N1c1cccc(Cl)c1` [Example 63, 1-(3-chlorophenyl)-3-phenyl-pyrrole-2,5-dione], the “treated mice developing inferior limb paresis after 20 days” value in test [2] (5 mg/kg intraperitoneally every day from day 4, approximately 30% of the untreated EAE mice developed it) was “no one”. The “development of the disease (average clinical score, non parametric scale 0-5)” value in test [2] (C57 black/6N female mice, MOG 35-55 immunization, 5 mg/kg intraperitoneally every day from day 4, FIG. 2) is reported as “significantly prevented”. In test [1], the CRC efficacy is reported as 2.5. The “neovascularization, fluorangiographic analysis” value in test [3] (intravitreal injection at P12, approximately 1 or 2 or 4 microM in the vitreum, analysis at p17, vs DMSO vehicle) is on record as “significant reduction”. In addition, in test [3] (intravitreal injection at P12, eyes at p17, hematoxylin and eosin sections, FIG. 1), the “number of endothelial cells present in the eye (per section)” value is listed as “significantly reduces”.
Take `O=C1C=C(c2ccccc2F)C(=O)N1c1cccc(Cl)c1` [Example 13, 1-(3-chlorophenyl)-3-(2-fluorophenyl)-pyrrole-2,5-dione]: the CRC efficacy in test [1] is 2.
With `Cc1cccc(N2C(=O)C=C(c3ccccc3)C2=O)c1` [Example 22, 1-(3-methylphenyl)-3-phenyl-pyrrole-2,5-dione], the CRC efficacy in test [1] is 2.57.
Same read-out and setting: to `O=C1C=C(c2ccccc2)C(=O)N1c1cccc(Br)c1` [Example 20, 1-(3-bromophenyl)-3-phenyl-pyrrole-2,5-dione] belongs 2.33.
